Test results published in US20240118281A1, “ANTICANCER COMPOUNDS AND USES THEREOF” (University of Florida Research Foundation, Incorporated, priority 2021, published 2024).

Legend:
ERp57 = molecular target: T1, ERp57 (Homo sapiens, UniProt P30101); test: Biotin-PyrDTDO/Streptavidin-agarose pulldown from treated cells; assay type: cell-based; conditions: FIG. 10A
T1 construct: endogenous in cells
Method: (§1) Cells were treated with Biotin-PyrDTDO with or without the pan-Caspase inhibitor Q-VD-OPH (MedChemExpress, Monmouth Junction, NJ) for 16 h in 10% FBS-DMEM, followed by the addition of 25 mM N-ethylmaleimide (NEM) (Thermo Scientific, Rockford, IL) for 20 min at 37° C. Cells were subsequently scraped directly into the media, washed twice with ice-cold PBS, and pelleted by centrifugation. Cells were extracted in buffer (20 mM HEPES (pH 7.4), 1 mM EDTA, 1mM EGTA, 5% Glycerol, 1 nM Microcystin, 1 mM Na3VO4, and 40 mM Na2H2P2O7) containing 1% Triton X-100. Samples were sonicated, followed by centrifugation for 20 min at 4° C. The supernatant was pre-cleared with Sepharose CL-6B (Amersham Biosciences AP, Uppsala, Sweden) for 2 h at 4° C. Pre-cleared samples were then incubated with Streptavidin (SA)-Agarose (Thermo Scientific, Rockford IL) and mixed on a Nutator for 24 h at 4° C. SA-Agarose was washed three times with extraction buffer containing 0.1% Triton X-100, followed by the addition of 2×-SDS Sample buffer containing 2 mM biotin. Samples were analyzed by immunoblot, silver stain, or probing with Streptavidin-Alkaline Phosphatase.

ERp5 = molecular target: T2, ERp5 (Homo sapiens, UniProt Q15084); test: as above; assay type: cell-based; conditions: FIG. 10A
T2 construct: endogenous in cells
Method: as §1

ERp44 [1] = molecular target: T3, ERp44 (Homo sapiens, UniProt Q9BS26); test: as above; assay type: cell-based; parameters: endogenous in cells; host or cells: MDA-MB-468, BT474, T47D; conditions: for ERp44 in Streptavidin-Agarose pulldown: 100 μM, 16 h
T3 sequence (Q9BS26 30-406): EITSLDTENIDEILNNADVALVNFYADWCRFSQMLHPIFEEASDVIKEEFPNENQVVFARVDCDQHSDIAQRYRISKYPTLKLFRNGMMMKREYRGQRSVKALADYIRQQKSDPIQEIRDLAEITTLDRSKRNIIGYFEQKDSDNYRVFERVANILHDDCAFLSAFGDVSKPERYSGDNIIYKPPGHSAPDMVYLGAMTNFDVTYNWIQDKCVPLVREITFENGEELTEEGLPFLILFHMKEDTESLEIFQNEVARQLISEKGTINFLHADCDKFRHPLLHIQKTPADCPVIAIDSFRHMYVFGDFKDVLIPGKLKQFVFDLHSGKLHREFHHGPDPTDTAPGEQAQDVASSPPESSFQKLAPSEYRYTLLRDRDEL
Method: as §1

PDIA1 [2] = molecular target: T4, PDIA1 (Homo sapiens, UniProt P07237); test: as above; assay type: cell-based; parameters: endogenous in cells; host or cells: MDA-MB-468, BT474, T47D; conditions: for PDIA1 in Streptavidin-Agarose pulldown: 100 μM, 16 h
Method: as §1

[3] = system: proteins in intact cells and purified proteins in vitro; test: Preliminary studies of biotinylated DDA protein labeling
Method: (§2) Purified His6-AGR2 or His6-AGR2 C81S, as prepared above, or His6-AGR2 (PRO-580) or His6-AGR3 (PRO-242) obtained from ProSpec (New Brunswick NJ) were incubated with or without varying concentrations of the unlabeled DDA competitors, tcyDTDO or dMtcyDTDO, and 30 μM Biotin-GlyPyrDTDO or Biotin-PyrDTDO in buffer (20 mM HEPES (pH 7.4), 1 mM EDTA, 1 mM EGTA, 5% Glycerol, 1 nM Microcystin, 1 mM Na3VO4, and 40 mM Na2H2P2O7) containing 1% Triton-X 100 for 30 min at 37° C. […] Therefore, the two probes were used interchangeably. Reactions were stopped by boiling the samples in 2×-SDS-Sample Buffer containing 100 mM NEM for 10 min. Biotin-DDA labeling of protein was verified by blotting with Streptavidin-Alkaline Phosphatase (Rockland Immunochemicals, Inc., Limerick, PA). ERp44 (PRO-547) and PDIA1 (ENZ-262) were obtained from ProSpec and used in experiments examining the binding of these proteins to Biotin-PyrDTDO.

AGR2 [4] = molecular target: T5, AGR2 (Homo sapiens, UniProt O95994); test: Biotin-PyrDTDO/Streptavidin-agarose pulldown from treated cells; assay type: cell-based; parameters: expressed in transfected cells; conditions: T47D and BT474 cells, 100 μM, 16 h, FIG. 3C left
T5 sequence (O95994 21-175): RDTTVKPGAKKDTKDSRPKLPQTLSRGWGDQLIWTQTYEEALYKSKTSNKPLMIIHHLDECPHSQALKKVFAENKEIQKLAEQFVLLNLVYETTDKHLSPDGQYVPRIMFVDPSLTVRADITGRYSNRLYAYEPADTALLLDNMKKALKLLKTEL
Method: as §1

ERp44 [5] = molecular target: T3, ERp44; test: In vitro binding assay with recombinant purified ERp44; conditions: FIG. 3D
Method: as §2

PDIA1 [6] = molecular target: T4, PDIA1; test: In vitro binding assay with recombinant purified PDIA1; conditions: FIG. 3D
Method: as §2

[7] = system: HCI-001/LVM2 breast tumors and associated liver metastases; test: HCI-001/LVM2 breast tumor liver metastasis study, H&E staining of livers; assay type: in vivo, mice; conditions: 20 mg/kg oral gavage once daily, four consecutive days; necrosis not observed in vehicle treated tumors
Method: Breast cancer liver metastasis was initiated in NOD-SCID-gamma (NSG) mice obtained from Jackson Laboratories (Bar Harbor, ME) by injecting 1×10^6 cancer cells into the #4 mammary fat pads as described previously (Wang M, et al. Cell Death Discovery 2019; 5: 153). Mice bearing HCI-001/LVM2 breast tumors were treated once daily for four consecutive days with 20 mg/kg tcyDTDO by oral gavage and livers were collected. Animals bearing HER2+ BT474 tumors were treated with the vehicle or 20 mg/kg dMtcyDTDO or dFtcyDTDO by intraperitoneal injection for four consecutive days. Tissue samples fixed in 4% paraformaldehyde/PBS and paraffin-embedded were sectioned and stained with hematoxylin and eosin (H&E) by the University of Florida Molecular Pathology Core (https://molecular.pathology.ufl.edu/).

C81S AGR2 mutant = molecular target: T6, C81S AGR2 mutant (Homo sapiens, UniProt O95994, C81S); test: DDA-AGR2 binding assay, C81S mutant; conditions: FIG. 2D
T6 construct: made in house; host or cells: E. coli BL21(DE3), pET-45b(+)
Method: Total RNA from BT474 cells was extracted with TRIzol Reagent (Invitrogen, Waltham, MA) according to the manufacturer's protocol. Total cellular RNA was used to synthesize first-strand cDNA by using the PCR conditions listed: 25° C. for 10 min, 42° C. for 30 min, and 95° C. for 5 min. PCR was subsequently performed using the following AGR2 primers: 5′-[…]-3′ and 5′-[…]-3′. The PCR fragment encoding AGR2 was subsequently digested with BamHI and SnaBI and cloned into the 5′ BamHI and 3′ SnaBI sites of pMXs-IRES-Blasticidin. The AGR2/pMXs-IRES-Blasticidin vector was used as a template for PCR reactions using the following AGR2 primers to amplify the DNA sequence downstream of the AGR2 signal sequence and to add 5′-BamHI and 3′-SalI sites: 5′-[…]-3′ and 5′-[…]-3′. The PCR fragment was digested with BamHI and SalI and cloned into the 5′ BamHI and 3′ SalI sites of pET-45b(+) (Novagen Burlington, MA). QuikChange mutagenesis was performed to produce the C81S mutation of AGR2 using the follow primers: 5′- […]-3′ and 5′-[…]-3′. The C81S mutation of AGR2 was verified by sequencing.
Competent BL21(DE3) cells were transformed with either the AGR2/pET-45b(+) or AGR2 C81S/pET-45b(+) vectors. Protein expression was induced by the addition of 50 µM Isopropyl β-D-1-thiogalactopyranoside (Fisher Scientific, Fair Lawn, NJ) to bacterial cell cultures for 2.5 hours and shaking at 37° C. […]

AGR2 [8] = molecular target: T5, AGR2; test: DDA-AGR2 binding assay, Streptavidin-Alkaline Phosphatase blot; parameters: made in house; host or cells: E. coli BL21(DE3), pET-45b(+); conditions: 37° C., non-reducing SDS-PAGE, FIG. 2B
Method: Competent BL21(DE3) cells were transformed with either the AGR2/pET-45b(+) or AGR2 C81S/pET-45b(+) vectors. Protein expression was induced by the addition of 50 µM Isopropyl β-D-1-thiogalactopyranoside (Fisher Scientific, Fair Lawn, NJ) to bacterial cell cultures for 2.5 hours and shaking at 37° C. Bacterial cells were subsequently pelleted and dissolved in Mouse Tonicity Phosphate Buffered Saline (MTPBS) containing 1% Triton X-100 and sonicated for 20 seconds on ice, followed by centrifugation for 10 min at 4° C. to pellet cell debris. The supernatant was transferred to a new tube, followed by the addition of TALON Resin (Clontech, Mountain View, CA) and mixing on a Nutator for 30 min at 4° C. The TALON Resin was pelleted by centrifugation and washed twice with MTPBS and twice with MTPBS containing 30 mM Imidazole. Protein bound to the TALON Resin was eluted with 400 mM Imidazole and precipitated with 60% saturated ammonium sulfate. The precipitated protein was pelleted by centrifugation, dissolved in MTPBS containing 1 mM DTT and 1 mM EDTA, and subsequently dialyzed against a solution of MTPBS containing 10 μM DTT and 30% Glycerol.
as §2

AGR3 = molecular target: T7, AGR3 (Homo sapiens, UniProt Q8TD06); test: DDA binding assay with AGR3; conditions: FIG. 2D
T7 construct: His6 (N); purchased ProSpec PRO-242
Method: as §2

[9] = system: MDA-MB-468 and BT474 cells; test: Immunoblot analysis of treated cells (FIG. 9D); assay type: cell-based; conditions: 24 h
Source text: The BT20, BT474, BT549, MCF7, MDA-MB-231, MDA-MB-436, MDA-MB-468, HCC1143, HCC1500, HCC1569, HCC1937, HCC1954, Hs578t, and T47D cells lines were purchased from American Type Culture Collection (ATCC) (Manassas, VA). The HCI-001 cell line was derived from an ER-/PR-/HER2- patient-derived xenograft originally isolated from a patient as described previously (DeRose Y S, et al. Nat Med 2011; 17: 1514-1520). The HCI-001/LVM2 model was derived from the HCI-001 cell line by performing two rounds of selection for liver metastasis, as described previously (Wang M, et al. Cell Death Discovery 2019; 5: 153). Cell lines were grown in Dulbecco's Modified Eagle's Medium (GE Healthcare Life Sciences, Logan, UT) containing 10% fetal bovine serum (10% FBS—DMEM) in a humidified incubator with 5% CO2 at 37° C. Cell lysates were prepared as described previously (Law B K, et al. Mol Cell Biol. 2002; 22: 8184-8198). […]

[10] = MDA-MB-468 cells, FIG. 3C right
[11] = T47D and BT474 cells, FIG. 3C left

T4 sequence (P07237 18-508): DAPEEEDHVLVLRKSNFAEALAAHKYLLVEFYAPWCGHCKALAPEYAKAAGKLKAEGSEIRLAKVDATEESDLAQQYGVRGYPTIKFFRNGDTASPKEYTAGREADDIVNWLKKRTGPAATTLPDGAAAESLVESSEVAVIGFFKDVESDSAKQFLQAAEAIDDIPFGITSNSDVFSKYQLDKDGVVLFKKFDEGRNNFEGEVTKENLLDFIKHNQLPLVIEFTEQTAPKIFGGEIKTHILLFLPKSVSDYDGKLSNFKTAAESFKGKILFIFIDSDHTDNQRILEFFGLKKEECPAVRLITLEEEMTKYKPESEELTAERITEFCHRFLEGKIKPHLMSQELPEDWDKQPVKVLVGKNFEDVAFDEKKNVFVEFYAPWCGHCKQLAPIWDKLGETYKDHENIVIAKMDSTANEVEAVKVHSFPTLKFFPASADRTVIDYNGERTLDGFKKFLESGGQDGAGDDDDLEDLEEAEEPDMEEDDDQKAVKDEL
T1 sequence (P30101 25-505): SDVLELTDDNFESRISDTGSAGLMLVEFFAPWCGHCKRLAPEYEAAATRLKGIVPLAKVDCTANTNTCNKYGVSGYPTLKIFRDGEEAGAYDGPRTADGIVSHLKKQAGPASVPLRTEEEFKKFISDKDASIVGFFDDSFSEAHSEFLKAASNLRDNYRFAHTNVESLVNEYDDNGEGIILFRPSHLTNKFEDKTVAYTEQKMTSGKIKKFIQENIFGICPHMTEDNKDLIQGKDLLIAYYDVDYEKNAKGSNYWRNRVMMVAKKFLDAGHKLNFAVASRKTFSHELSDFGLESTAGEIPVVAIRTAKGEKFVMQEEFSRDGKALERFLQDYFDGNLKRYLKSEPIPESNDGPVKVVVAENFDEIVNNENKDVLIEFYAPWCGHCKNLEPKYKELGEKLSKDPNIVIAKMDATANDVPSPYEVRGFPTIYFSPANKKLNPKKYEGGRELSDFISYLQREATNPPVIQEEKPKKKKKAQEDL
T2 sequence (Q15084 20-440): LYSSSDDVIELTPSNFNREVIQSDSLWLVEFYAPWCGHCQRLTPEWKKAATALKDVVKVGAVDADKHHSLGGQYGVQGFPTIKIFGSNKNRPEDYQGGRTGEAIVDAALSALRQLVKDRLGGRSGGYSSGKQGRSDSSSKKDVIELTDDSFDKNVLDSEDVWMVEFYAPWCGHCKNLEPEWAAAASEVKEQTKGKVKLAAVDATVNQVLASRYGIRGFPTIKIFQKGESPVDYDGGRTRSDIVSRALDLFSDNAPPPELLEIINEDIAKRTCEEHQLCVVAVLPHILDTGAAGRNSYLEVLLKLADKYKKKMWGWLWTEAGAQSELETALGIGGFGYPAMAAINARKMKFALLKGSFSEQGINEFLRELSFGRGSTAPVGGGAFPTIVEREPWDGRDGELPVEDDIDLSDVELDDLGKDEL
T6 sequence (O95994 21-175 C81S): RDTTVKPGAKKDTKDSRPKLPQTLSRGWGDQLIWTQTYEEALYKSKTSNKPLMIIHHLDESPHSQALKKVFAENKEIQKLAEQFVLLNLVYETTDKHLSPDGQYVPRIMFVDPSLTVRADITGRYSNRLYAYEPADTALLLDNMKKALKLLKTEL
T7 sequence (Q8TD06 22-166): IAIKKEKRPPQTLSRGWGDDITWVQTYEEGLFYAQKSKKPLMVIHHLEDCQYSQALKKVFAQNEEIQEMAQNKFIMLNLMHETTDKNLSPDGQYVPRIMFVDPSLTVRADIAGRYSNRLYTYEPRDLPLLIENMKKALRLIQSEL

## O=C1N[C@H]2[C@H](CS[C@H]2CCCCC(=O)N2C[C@@H]3CS(=O)(=O)SC[C@H]3C2)N1 (mixture of isomers) [Biotin-PyrDTDO, (3aS,4S,6aR)-4-(5-((4aR,7aR) and (4aS,7aS)-2,2-dioxidotetrahydro-1H-[1,2]dithiino[4,5-c]pyrrol-6(4H)-yl)-5-oxopentyptetrahydro-1H-thieno[3,4-d]imidazol-2(3H)-one]
ERp57
  ERp57 in additional pulldown experiments: ERp57 and ERp5 were not
ERp5
  ERp5 in additional pulldown experiments: ERp57 and ERp5 were not
ERp44 [1]; FIG. 10A
  ERp44 in additional pulldown experiments: detected
ERp44 [1]; [10]
  ERp44 in Streptavidin-Agarose pulldown: affinity purified ERp44 and PDIA1
ERp44 [1]; [11]
  ERp44 in Streptavidin-Agarose pulldown: isolated
PDIA1 [2]; FIG. 10A
  PDIA1 in additional pulldown experiments: detected
PDIA1 [2]; [10]
  PDIA1 in Streptavidin-Agarose pulldown: affinity purified ERp44 and PDIA1
PDIA1 [2]; [11]
  PDIA1 in Streptavidin-Agarose pulldown: isolated
[3]
  Labeling of proteins, comparison of the two biotinylated probes: indistinguishable labeling of proteins in intact cells and purified proteins in vitro
AGR2 [4]
  AGR2 in Streptavidin-Agarose pulldown: isolated
ERp44 [5]
  Labeling of ERp44 by biotinylated DDA: labeled ERp44 and PDIA1
PDIA1 [6]
  Labeling of PDIA1 by biotinylated DDA: labeled ERp44 and PDIA1

## O=S1(=O)CC2CCCCC2CS1 (stereo not drawn) [tcyDTDO]
[7]
  Liver metastases, H&E histology: exhibited central necrosis

## O=C(CCCC[C@@H]1SC[C@@H]2NC(=O)N[C@@H]21)NCC(=O)N1C[C@@H]2CS(=O)(=O)SC[C@H]2C1 (racemic) [Biotin-GlyPyrDTDO, N-(2-((4aS,7aS)- and (4aR,7aR)-2,2-Dioxidotetrahydro-1H-[1,2]dithiino[4,5-c]pyrrol-6(4H)-yl)-2-oxoethyl)-5-((3aS,4S,6aR)-2-oxohexahydro-1H-thieno[3,4-d]imidazol-4-yl)pentanamide]
C81S AGR2 mutant
  Labeling of C81S AGR2 mutant by biotinylated DDA: not labeled
AGR2 [8]
  Labeling of AGR2 by biotinylated DDA: labeled AGR2 in a concentration-dependent manner
AGR3
  Labeling of AGR3 by biotinylated DDA: also labeled
[3]
  Labeling of proteins, comparison of the two biotinylated probes: indistinguishable labeling of proteins in intact cells and purified proteins in vitro

## CC(C)(C)OC(=O)N1C[C@@H]2CS(=O)(=O)SC[C@H]2C1 (racemic) [(±)-BocPyrDTDO, tert-Butyl-(4aS,7aS)- and (4aR,7aR)-tetrahydro-1H-[1,2]dithiino[4,5-e]pyrrole-6(4H)-carboxylate 2,2-dioxide]
[9]
  Biological activity and potency compared with DTDO: biologically active and showed a potency similar to DTDO
